Row | Compound | logP
1 | O=C1c2c(O)cccc2C(C(=O)CCc2ccc(OCc3ccccc3)cc2)c2cccc(O)c21 | 5.63
2 | O=C(O)c1ccc(C=C2c3cccc(O)c3C(=O)c3c(O)cccc32)cc1 | 4.4
3 | O=C1c2c(O)cccc2C(C(=O)Cc2ccc([N+](=O)[O-])cc2)c2cccc(O)c21 | 3.96
4 | O=C1c2c(O)cccc2C(C(=O)CCc2ccc(O)cc2)c2cccc(O)c21 | 3.73
5 | O=C1c2c(O)cccc2C(C(=O)Cc2cc(OCc3ccccc3)c(OCc3ccccc3)c(OCc3ccccc3)c2)c2cccc(O)c21 | 6.11
6 | O=C1c2c(O)cccc2C(C(=O)CCc2ccccc2)c2cccc(O)c21 | 4.63
7 | O=C1c2c(O)cccc2C(C(=O)Cc2ccc(O)c(O)c2)c2cccc(O)c21 | 3
8 | O=C1c2c(O)cccc2C(=Cc2ccc(O)cc2)c2cccc(O)c21 | 4.52
9 | COc1ccc(CCC(=O)C2c3cccc(O)c3C(=O)c3c(O)cccc32)cc1OC | 4.21
10 | O=C1c2c(O)cccc2C(C(=O)Cc2ccc(OCc3ccccc3)cc2)c2cccc(O)c21 | 5.01
11 | O=C1c2c(O)cccc2C(=Cc2ccc(C(F)(F)F)cc2)c2cccc(O)c21 | 5.48
12 | COc1ccc(C=C2c3cccc(O)c3C(=O)c3c(O)cccc32)cc1 | 5.53
13 | CC(C)(C)c1cc(CC(=O)C2c3cccc(O)c3C(=O)c3c(O)cccc32)cc(C(C)(C)C)c1O | 5.33
14 | O=C1c2c(O)cccc2C(C(=O)/C=C/c2ccccc2)c2cccc(O)c21 | 4.6
15 | COc1cccc(C=CC(=O)C2c3cccc(O)c3C(=O)c3c(O)cccc32)c1 | 4.68
16 | O=C1c2c(O)cccc2C(C(=O)Cc2cc(O)c(O)c(O)c2)c2cccc(O)c21 | 2.61
17 | COc1ccc(CC(=O)C2c3cccc(O)c3C(=O)c3c(O)cccc32)cc1 | 4.2
18 | O=C1c2c(O)cccc2C(C(=O)Cc2ccc(O)cc2)c2cccc(O)c21 | 3.38
19 | COc1ccc(C=C2c3cccc(O)c3C(=O)c3c(O)cccc32)cc1OC | 5.05
20 | O=C1c2c(O)cccc2C(=Cc2cc(O)c(O)c(O)c2)c2cccc(O)c21 | 3.32
21 | O=C1c2c(O)cccc2C(C(=O)CCCc2ccccc2)c2cccc(O)c21 | 4.74
22 | O=C1c2c(O)cccc2C(C(=O)Cc2ccccc2)c2cccc(O)c21 | 4.24
23 | N#Cc1ccc(C=C2c3cccc(O)c3C(=O)c3c(O)cccc32)cc1 | 4.58
24 | COC(=O)c1ccc(C=C2c3cccc(O)c3C(=O)c3c(O)cccc32)cc1 | 5.35
25 | O=C1c2c(O)cccc2C(=Cc2ccc([N+](=O)[O-])cc2)c2cccc(O)c21 | 4.96
26 | O=C1c2c(O)cccc2C(C(=O)/C=C/c2ccc([N+](=O)[O-])cc2)c2cccc(O)c21 | 4.23
27 | O=C1c2c(O)cccc2C(C(=O)Cc2ccc(OCc3ccccc3)c(OCc3ccccc3)c2)c2cccc(O)c21 | 5.43
28 | Cc1ccc(C=C2c3cccc(O)c3C(=O)c3c(O)cccc32)cc1 | 5.83
29 | COc1ccc(CCC(=O)C2c3cccc(O)c3C(=O)c3c(O)cccc32)cc1 | 4.72
30 | O=C1c2c(O)cccc2C(=CCCc2ccccc2)c2cccc(O)c21 | 5.67

From the SangsterLogP compilation
